Experimental findings from ChEMBL document CHEMBL1201862, “PubChem BioAssay data set” (2004) are described below.

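Exposure lasted 48 hours, with cells grown in 96-well plates and compounds tested at five concentrations. Abbreviation: GI50, concentration required for 50% inhibition of growth.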 Activity calls are given as the source filed them. Cut-off read from the data, not from the text of the source: active = GI50 up to about 1.1 µM and inactive = higher.

Among the test systems are NCI-H226; OVCAR-8; NCI-H23; UACC-62; OVCAR-3; CCRF-CEM; RPMI-8226; SNB-75; KM12; HL-60; A498; EKVX; SW-620; SK-MEL-5; HCT-116; CAKI-1; SNB-19; MDA-N; MCF7.
What all share (assay): NCI anticancer screen, dose series, 48 h

As to `CCCC(S(=O)(=O)c1ccccc1)S(=O)(=O)c1ccccc1`, the GI50 is 86.7 µM (inactive) in the experiment on NCI-H226; > 100 µM (inactive) in the experiment with OVCAR-8; > 100 µM (inactive) with NCI-H23; > 100 µM (inactive) in the experiment on UACC-62; > 100 µM (inactive) in the experiment on OVCAR-3; > 100 µM (inactive) in the experiment with CCRF-CEM. The GI50 in the experiment with RPMI-8226, in the experiment on SNB-75, in the experiment on KM12, in the experiment on HL-60, in the experiment with A498 and with EKVX was > 100 µM (inactive) in each case. The GI50 in the experiment with SW-620, with SK-MEL-5, in the experiment on HCT-116 and in the experiment with CAKI-1 was > 100 µM (inactive) each time.

Regarding `COc1c(OC2OC(CO)C(O)C(O)C2O)cc2c(c1OC)-c1ccc(OC)c(=O)cc1[C@@H](NC(C)=O)CC2` (some centres not stated), the GI50 is > 100 µM (inactive) with NCI-H226; > 100 µM (inactive) in the experiment with OVCAR-8; > 100 µM (inactive) in the experiment with NCI-H23; 51.5 µM (inactive) with UACC-62; 39.5 µM (inactive) in the experiment on OVCAR-3; 65.2 µM (inactive) with CCRF-CEM. Moreover, the GI50 in the experiment on RPMI-8226 is > 82.2 µM (inactive); in the experiment with SNB-75 it was 25.8 µM (inactive); in the experiment on KM12, 92.7 µM (inactive); with HL-60 it was > 70.8 µM (inactive); with A498, > 100 µM (inactive); in the experiment on EKVX it was > 100 µM (inactive). Also, the GI50 with SNB-19 was > 100 µM (inactive); in the experiment with SW-620 it was > 81.8 µM (inactive); in the experiment on SK-MEL-5 it was 35.2 µM (inactive); with HCT-116 it was > 100 µM (inactive); with CAKI-1 it was > 100 µM (inactive).

In the case of `Cc1cc2c(C(C)C)c(O)c(O)c(/C=N\CCO)c2c(O)c1-c1c(C)cc2c(C(C)C)c(O)c(O)c(/C=N/CCO)c2c1O`, the GI50 is 2.51 µM (inactive) with NCI-H226; 3.3 µM (inactive) in the experiment with OVCAR-8; 1.76 µM (inactive) in the experiment on NCI-H23; 2.74 µM (inactive) in the experiment on UACC-62; 2.02 µM (inactive) in the experiment with OVCAR-3; 0.653 µM (active) in the experiment on CCRF-CEM. Moreover, the GI50 in the experiment on RPMI-8226 was 1.19 µM (inactive); in the experiment on SNB-75 it was 2.67 µM (inactive); in the experiment on KM12 it was 0.74 µM (active); in the experiment with HL-60, 2.43 µM (inactive); in the experiment with A498, 3.36 µM (inactive); with EKVX it was 2.28 µM (inactive). The GI50 in the experiment on SNB-19 is 2.05 µM (inactive); in the experiment on SW-620, 3.83 µM (inactive); with SK-MEL-5 it was 1.73 µM (inactive); in the experiment on HCT-116, 1.67 µM (inactive); in the experiment with CAKI-1, 5.24 µM (inactive).

In the case of `COC(=O)CCC(=O)CC(=O)C(=O)Nc1c(Cl)cc([N+](=O)[O-])cc1Cl`, the GI50 in the experiment with NCI-H226 is > 100 µM (inactive); with OVCAR-8, > 100 µM (inactive); in the experiment with NCI-H23, > 100 µM (inactive); in the experiment with UACC-62 it was > 100 µM (inactive); in the experiment with OVCAR-3 it was > 100 µM (inactive); in the experiment on CCRF-CEM, 57.3 µM (inactive). The GI50 in the experiment with RPMI-8226 is 33.4 µM (inactive); in the experiment with SNB-75, 47.2 µM (inactive); in the experiment on KM12, > 100 µM (inactive); in the experiment with HL-60, > 100 µM (inactive); with A498, 57.3 µM (inactive); in the experiment on EKVX, 51.8 µM (inactive). Further, the GI50 in the experiment on SNB-19 is > 100 µM (inactive); in the experiment with SK-MEL-5, > 100 µM (inactive); in the experiment on HCT-116, 42.3 µM (inactive); in the experiment on CAKI-1 it was 61.8 µM (inactive).

With `Cc1ccc(S(=NS(=O)(=O)c2ccc(C)cc2)c2ccc(C)cc2)cc1`, the GI50 is > 100 µM (inactive) in the experiment with NCI-H226; 71.6 µM (inactive) in the experiment on OVCAR-8; 51.6 µM (inactive) in the experiment with NCI-H23; 76 µM (inactive) in the experiment with OVCAR-3; 57 µM (inactive) in the experiment on CCRF-CEM; 77.1 µM (inactive) with MDA-N. For the same compound, the GI50 in the experiment on RPMI-8226 was > 100 µM (inactive); in the experiment with KM12 it was 48.5 µM (inactive); in the experiment with HL-60 it was 34.7 µM (inactive); with EKVX, 86.5 µM (inactive); in the experiment on SNB-19 it was > 100 µM (inactive); in the experiment on SW-620 it was > 100 µM (inactive). For the same compound, the GI50 with MCF7 is 68.2 µM (inactive); in the experiment with HCT-116, 56.9 µM (inactive).

Take `COc1ccc(/C=c2/sc3n(c2=O)C(c2ccccc2)C2(O)CCCCC2N=3)cc1` (configuration not stated): the GI50 with NCI-H226, in the experiment with OVCAR-8, in the experiment with NCI-H23, in the experiment on UACC-62, in the experiment on OVCAR-3 and in the experiment on CCRF-CEM was > 12.5 µM (inactive) in each case. The GI50 in the experiment on MDA-N, in the experiment with RPMI-8226, with SNB-75, in the experiment with HL-60, in the experiment with SNB-19 and with SW-620 was > 12.5 µM (inactive) in each case. For the same compound, the GI50 with MCF7, with SK-MEL-5, in the experiment with HCT-116 and in the experiment with CAKI-1 was > 12.5 µM (inactive) throughout.

Turning to `O=C1C(N2C(=O)c3ccccc3C2=O)CN1C(COCc1ccccc1)c1ccc(OCc2ccccc2)cc1` (configuration not stated), the GI50 with NCI-H226, in the experiment on OVCAR-8, in the experiment with NCI-H23, with UACC-62, with OVCAR-3 and in the experiment on CCRF-CEM was > 100 µM (inactive) in each case. The GI50 in the experiment with RPMI-8226, in the experiment with SNB-75, in the experiment on KM12, in the experiment with HL-60, in the experiment on A498 and with EKVX was > 100 µM (inactive) each time. Moreover, the GI50 in the experiment on SNB-19, in the experiment on SW-620, in the experiment on SK-MEL-5, in the experiment on HCT-116 and in the experiment on CAKI-1 was > 100 µM (inactive) throughout.

Turning to `Cc1ccccc1C(C#N)/C(=N/NC(=O)c1cc2ccccc2cc1O)C(=O)Nc1cccc(Cl)c1` (configuration not stated), the GI50 in the experiment on NCI-H226 is 18.5 µM (inactive); with OVCAR-8, 8.85 µM (inactive); with NCI-H23, 12.4 µM (inactive); in the experiment with UACC-62 it was 4.27 µM (inactive); in the experiment on OVCAR-3 it was 5.42 µM (inactive); in the experiment on CCRF-CEM, 4.36 µM (inactive). Besides, the GI50 in the experiment on RPMI-8226 was 21.3 µM (inactive); in the experiment on SNB-75 it was 6.24 µM (inactive); in the experiment on KM12 it was 33.4 µM (inactive); in the experiment with HL-60, 3.72 µM (inactive); in the experiment on A498, 41.4 µM (inactive); in the experiment on EKVX it was 28.8 µM (inactive). For the same compound, the GI50 is 37.9 µM (inactive) with SNB-19; 7.85 µM (inactive) in the experiment with SW-620; 8.38 µM (inactive) with SK-MEL-5; 14.5 µM (inactive) with HCT-116; 19.8 µM (inactive) in the experiment on CAKI-1.

In the case of `CCOc1ccc(NC(=O)CC2C(=O)Nc3ccccc3[S+]2[O-])cc1` (configuration not stated), the GI50 with NCI-H226 was > 64.7 µM (inactive); in the experiment with OVCAR-8, 57.9 µM (inactive); with NCI-H23, > 76.6 µM (inactive); in the experiment with UACC-62, > 46.5 µM (inactive); in the experiment on OVCAR-3, > 59.7 µM (inactive); with CCRF-CEM, > 100 µM (inactive). Further, the GI50 was > 100 µM (inactive) with RPMI-8226; 20.1 µM (inactive) in the experiment on SNB-75; > 100 µM (inactive) in the experiment with KM12; > 100 µM (inactive) with HL-60; > 64 µM (inactive) with A498; > 46.5 µM (inactive) with EKVX. Also, the GI50 in the experiment on SNB-19 was 59.6 µM (inactive); in the experiment on SW-620 it was > 76.6 µM (inactive); in the experiment with SK-MEL-5 it was > 100 µM (inactive); in the experiment with HCT-116 it was > 85.3 µM (inactive); in the experiment on CAKI-1 it was > 67 µM (inactive).

For the compound `COC(=O)[C@]1(c2cc3ccccc3[nH]2)CC2CNC1C1OC(C)(C)OC21` (some centres not stated), the GI50 in the experiment with NCI-H226, in the experiment with OVCAR-8, with NCI-H23, with UACC-62, with OVCAR-3 and with CCRF-CEM was > 100 µM (inactive) in each case. The GI50 in the experiment on MDA-N was 75.9 µM (inactive); with RPMI-8226, 61.4 µM (inactive); with SNB-75 it was > 100 µM (inactive); in the experiment on KM12, > 100 µM (inactive); in the experiment with HL-60 it was > 100 µM (inactive); with EKVX, > 100 µM (inactive). The GI50 in the experiment on SNB-19, with SW-620, in the experiment with MCF7, with SK-MEL-5, in the experiment on HCT-116 and in the experiment on CAKI-1 was > 100 µM (inactive) each time.

As for `O=c1c(-c2ccccc2)c2oc(c1-c1ccccc1)CSCc1cccc(c1)CSC2`, the GI50 in the experiment with NCI-H226 is 56.4 µM (inactive); with OVCAR-8 it was 43.1 µM (inactive); in the experiment on NCI-H23, > 100 µM (inactive); in the experiment on UACC-62, 44.1 µM (inactive); in the experiment with OVCAR-3 it was 27.8 µM (inactive); in the experiment on CCRF-CEM, 80 µM (inactive). For the same compound, the GI50 in the experiment with RPMI-8226 is 27.9 µM (inactive); in the experiment with SNB-75 it was 15.3 µM (inactive); in the experiment on KM12 it was 60.3 µM (inactive); in the experiment with HL-60, 67.9 µM (inactive); with A498, 21.8 µM (inactive); with EKVX it was 42.1 µM (inactive). Besides, the GI50 with SNB-19 was 33 µM (inactive); with SW-620 it was 30.3 µM (inactive); in the experiment on SK-MEL-5 it was 54.2 µM (inactive); in the experiment with HCT-116, 41.2 µM (inactive); with CAKI-1 it was 34.2 µM (inactive).

On to `COc1cccc(C2C(C(=O)Nc3cc(=O)n(C)c(=O)n3C)=C(C)NC(C)=C2C(=O)Nc2cc(=O)n(C)c(=O)n2C)c1O`, for which the GI50 was > 100 µM (inactive) in the experiment with NCI-H226; > 100 µM (inactive) in the experiment on OVCAR-8; > 100 µM (inactive) with NCI-H23; > 100 µM (inactive) in the experiment with OVCAR-3; 86.7 µM (inactive) in the experiment on CCRF-CEM; 66.1 µM (inactive) in the experiment on RPMI-8226. Also, the GI50 in the experiment on SNB-75 is 23.9 µM (inactive); in the experiment with KM12 it was > 100 µM (inactive); in the experiment with HL-60 it was > 100 µM (inactive); in the experiment with A498, > 100 µM (inactive); in the experiment with EKVX it was > 100 µM (inactive); in the experiment on SNB-19 it was > 100 µM (inactive). The GI50 in the experiment on SW-620, in the experiment with SK-MEL-5 and with CAKI-1 was > 100 µM (inactive) throughout.
